Source: patent US8158794B2, “Hydroxyalkyl substituted imidazoquinoline compounds and methods” (3M Innovative Properties Company, priority 2005, dated 2012)
Counter-ions that a name gives are not always drawn.

What was measured:
[1] = test system: tumor necrosis factor (α) (TNF-α); experiment: Cytokine induction in human cells: TNF-α secreted by PBMC (ORIGEN M-Series immunoassay); format: cell-based; conditions: 18 to 24 hours, lowest tested concentration inducing response over 40 pg/mL, median if more than one experiment, read-out: Minimum Effective Concentration (μM) TNF
From the text: (§1) An in vitro human blood cell system is used to assess cytokine induction. Activity is based on the measurement of interferon (α) and tumor necrosis factor (α) (IFN-α and TNF-α, respectively) secreted into culture media as described by Testerman et. al. in “Cytokine Induction by the Immunomodulators Imiquimod and S-27609”, Journal of Leukocyte Biology, 58, 365-372 (September, 1995).
(§2) Whole blood from healthy human donors is collected by venipuncture into vacutainer tubes or syringes containing EDTA. Peripheral blood mononuclear cells (PBMC) are separated from whole blood by density gradient centrifugation using HISTOPAQUE-1077 (Sigma, St. Louis, Mo.) or Ficoll-Paque Plus (Amersham Biosciences Piscataway, N.J.). Blood is diluted 1:1 with Dulbecco's Phosphate Buffered Saline (DPBS) or Hank's Balanced Salts Solution (HBSS). Alternately, whole blood is placed in Accuspin (Sigma) or LeucoSep (Greiner Bio-One, Inc., Longwood, Fla.) centrifuge frit tubes containing density gradient medium. The PBMC layer is collected and washed twice with DPBS or HBSS and re-suspended at 4×10^6 cells/mL in RPMI complete. The PBMC suspension is added to 96 well flat bottom sterile tissue culture plates containing an equal volume of RPMI complete media containing test compound.
(§3) The compounds are solubilized in dimethyl sulfoxide (DMSO). The DMSO concentration should not exceed a final concentration of 1% for addition to the culture wells. The compounds are generally tested at concentrations ranging from 30-0.014 μM. Controls include cell samples with media only, cell samples with DMSO only (no compound), and cell samples with reference compound.
(§4) The solution of test compound is added at 60 μM to the first well containing RPMI complete and serial 3 fold dilutions are made in the wells. The PBMC suspension is then added to the wells in an equal volume, bringing the test compound concentrations to the desired range (usually 30-0.014 μM). The final concentration of PBMC suspension is 2×10^6 cells/mL. The plates are covered with sterile plastic lids, mixed gently and then incubated for 18 to 24 hours at 37° C. in a 5% carbon dioxide atmosphere.
(§5) Following incubation the plates are centrifuged for 10 minutes at 1000 rpm (approximately 200×g) at 4° C. The cell-free culture supernatant is removed and transferred to sterile polypropylene tubes. Samples are maintained at −30 to −70° C. until analysis. The samples are analyzed for IFN-α by ELISA and for TNF-α by IGEN/BioVeris Assay.
The TNF-α concentration is determined by ORIGEN M-Series Immunoassay and read on an IGEN M-8 analyzer from BioVeris Corporation, formerly known as IGEN International, Gaithersburg, Md. The immunoassay uses a human TNF-α capture and detection antibody pair (Catalog Numbers AHC3419 and AHC3712) from Biosource International, Camarillo, Calif. Results are expressed in pg/mL.
(§6) In total, the data output of the assay consists of concentration values of TNF-α and IFN-α(y-axis) as a function of compound concentration (x-axis).
Analysis of the data has two steps. First, the greater of the mean DMSO (DMSO control wells) or the experimental background (usually 20 pg/mL for IFN-α and 40 pg/mL for TNF-α) is subtracted from each reading. If any negative values result from background subtraction, the reading is reported as “*”, and is noted as not reliably detectable. In subsequent calculations and statistics, “*”, is treated as a zero. Second, all background subtracted values are multiplied by a single adjustment ratio to decrease experiment to experiment variability. The adjustment ratio is the area of the reference compound in the new experiment divided by the expected area of the reference compound based on the past 61 experiments (unadjusted readings). […]

interferon (α) (IFN-α) = experiment: Cytokine induction in human cells: IFN-α secreted by PBMC (ELISA); format: cell-based; conditions: 18 to 24 hours, lowest tested concentration inducing response over 20 pg/mL, median if more than one experiment, read-out: Minimum Effective Concentration (μM) IFN
From the text: as §1, §2, §3, §4, §5
IFN-α concentration is determined with a human multi-subtype colorimetric sandwich ELISA (Catalog Number 41105) from PBL Biomedical Laboratories, Piscataway, N.J. Results are expressed in pg/mL.
as §6
Analysis of the data has two steps. First, the greater of the mean DMSO (DMSO control wells) or the experimental background (usually 20 pg/mL for IFN-α and 40 pg/mL for TNF-α) is subtracted from each reading. If any negative values result from background subtraction, the reading is reported as “*”, and is noted as not reliably detectable. In subsequent calculations and statistics, “*”, is treated as a zero. Second, all background subtracted values are multiplied by a single adjustment ratio to decrease experiment to experiment variability. The adjustment ratio is the area of the reference compound in the new experiment divided by the expected area of the reference compound based on the past 61 experiments (unadjusted readings). […] The reference compound used is 2-[4-amino-2-ethoxymethyl-6,7,8,9-tetrahydro-α,α-dimethyl-1H-imidazo[4,5-c]quinolin-1-yl]ethanol hydrate (U.S. Pat. No. 5,352,784; Example 91) and the expected area is the sum of the median dose values from the past 61 experiments.
The minimum effective concentration is calculated based on the background-subtracted, reference-adjusted results for a given experiment and compound. […]

Compound	minimal effective concentration [1]	melting point	minimal effective concentration (interferon (α) (IFN-α))
Nc1nc2cc(-c3cccnc3)ccc2c2c1nc(CO)n2CCCCNC(=O)C1CCCC1 [Example 42]	3.33 µM	241 to 242 °C	0.12 µM
Cc1cccc(-c2ccc3c(c2)nc(N)c2nc(CCO)n(CCCN4CCCC4=O)c23)c1 (hydrate or solvate) [Example 47]		218 to 221 °C	
CC(C)(O)Cn1c(CO)nc2c(N)nc3cc(-c4cncc(CO)c4)ccc3c21 (hydrate or solvate) [Example 33]		180 to 182 °C	
CC(C)NC(=O)N1CCC(Cn2c(CO)nc3c(N)nc4cc(-c5cncc(CO)c5)ccc4c32)CC1 (as salt: HBr) [Example 46]		> 300 °C	
CS(=O)(=O)NCCCCn1c(CO)nc2c(N)nc3cc(-c4cccnc4)ccc3c21 (hydrate or solvate) [Example 38]		188 to 190 °C	
CC(C)(O)Cn1c(CO)nc2c(N)nc3cc(-c4cccnc4)ccc3c21 (hydrate or solvate) [Example 51]		141 to 143 °C	
CS(=O)(=O)N1CCC(Cn2c(CO)nc3c(N)nc4cc(-c5cncc(CO)c5)ccc4c32)CC1 (as salt: HBr) (hydrate or solvate) [Example 44]		> 300 °C	
Nc1nc2cc(-c3cncc(CO)c3)ccc2c2c1nc(CO)n2CC1CCCCC1 (hydrate or solvate) [Example 49]		166 to 170 °C	
CC(C)(O)Cn1c(CO)nc2c(N)nc3cc(-c4ccc(F)nc4)ccc3c21 (hydrate or solvate) [Example 37]		111 to 114 °C	
CC(C)C(=O)N1CCC(Cn2c(CO)nc3c(N)nc4cc(-c5cncc(CO)c5)ccc4c32)CC1 (as salt: HBr) [Example 45]		> 300 °C	
CCCNC(=O)NCCCCn1c(CO)nc2c(N)nc3cc(-c4cccnc4)ccc3c21 (hydrate or solvate) [Example 39]		206 to 209 °C	
Nc1nc2cc(-c3cccc(C(=O)N4CCOCC4)c3)ccc2c2c1nc(CO)n2CC1CCCCC1 (as salt: HCl) (hydrate or solvate) [Example 50]		260 to 264 °C	
CCCC(=O)NCCCCn1c(CO)nc2c(N)nc3cc(-c4cccnc4)ccc3c21 (hydrate or solvate) [Example 40]		211 to 212 °C	
Nc1nc2cc(-c3cccnc3)ccc2c2c1nc(CO)n2CC1CCOCC1 [Example 32, [4-Amino-7-pyridin-3-yl-1-(tetrahydro-2H-pyran-4-ylmethyl)-1H-imidazo[4,5-c]quinolin-2-yl]methanol]		260 to 262 °C	
